Experimental data reported in the Kinase Knowledgebase extract (Sharma et al. 2016).

How the values were obtained:
EGFR (human) [1] = target: EGFR (human) (UniProt P00533); conditions: a431
EGFR (human) [2] = target: EGFR (human) (UniProt P00533)

Sequence of EGFR (human) (P00533 whole entry, looked up): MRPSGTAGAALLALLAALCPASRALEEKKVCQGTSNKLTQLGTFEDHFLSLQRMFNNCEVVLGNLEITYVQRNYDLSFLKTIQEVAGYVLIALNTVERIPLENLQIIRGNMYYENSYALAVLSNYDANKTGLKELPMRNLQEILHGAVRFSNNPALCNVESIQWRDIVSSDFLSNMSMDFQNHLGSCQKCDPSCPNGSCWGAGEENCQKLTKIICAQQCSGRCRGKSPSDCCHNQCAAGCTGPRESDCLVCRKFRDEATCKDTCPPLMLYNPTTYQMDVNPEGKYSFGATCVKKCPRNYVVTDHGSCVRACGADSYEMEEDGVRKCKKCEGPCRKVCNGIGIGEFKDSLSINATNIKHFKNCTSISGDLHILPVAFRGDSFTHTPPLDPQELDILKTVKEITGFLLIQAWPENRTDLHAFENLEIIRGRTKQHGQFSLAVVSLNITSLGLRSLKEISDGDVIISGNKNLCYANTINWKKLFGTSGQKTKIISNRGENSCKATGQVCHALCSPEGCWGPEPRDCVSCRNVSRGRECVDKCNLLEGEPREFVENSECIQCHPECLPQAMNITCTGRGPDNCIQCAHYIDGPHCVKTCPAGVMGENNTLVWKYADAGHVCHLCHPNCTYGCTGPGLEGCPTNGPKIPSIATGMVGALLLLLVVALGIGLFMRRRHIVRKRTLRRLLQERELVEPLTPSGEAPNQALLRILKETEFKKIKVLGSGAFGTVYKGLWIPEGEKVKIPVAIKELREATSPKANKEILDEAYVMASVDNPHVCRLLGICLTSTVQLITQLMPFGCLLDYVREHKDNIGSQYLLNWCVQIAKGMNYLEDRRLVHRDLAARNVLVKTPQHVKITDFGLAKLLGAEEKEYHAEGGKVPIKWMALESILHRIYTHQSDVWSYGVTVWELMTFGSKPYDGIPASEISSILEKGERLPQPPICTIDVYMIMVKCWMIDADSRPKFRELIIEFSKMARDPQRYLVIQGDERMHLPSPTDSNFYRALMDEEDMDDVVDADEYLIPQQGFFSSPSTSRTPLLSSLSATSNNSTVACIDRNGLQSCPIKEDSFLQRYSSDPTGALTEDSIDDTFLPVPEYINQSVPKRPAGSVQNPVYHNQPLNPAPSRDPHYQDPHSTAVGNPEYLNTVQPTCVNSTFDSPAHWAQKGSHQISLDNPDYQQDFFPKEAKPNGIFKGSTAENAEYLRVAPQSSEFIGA

SMILES	IC50 (EGFR (human) [1])	IC50 (EGFR (human) [2])
Fc1cccc(COc2ccc(Nc3ncnc4ccc(-c5ccn(Cc6ccncc6)c5)cc34)cc2Cl)c1	49 nM	80 nM
CS(=O)(=O)CCNCc1ccc(-c2ccc3ncnc(Nc4ccc(OCc5cccc(F)c5)c(Cl)c4)c3c2)[nH]1	120 nM	2.6 nM
O=S1(=O)CCC(O)(CNCc2ccn(-c3ccc4ncnc(Nc5ccc(OCc6cccc(F)c6)c(Cl)c5)c4c3)c2)CC1	30 nM	7 nM
CN1CCN(C(=O)c2cn(-c3ccc4ncnc(Nc5ccc(OCc6cccc(F)c6)c(Cl)c5)c4c3)cc2CCO)CC1	1430 nM	5 nM
O=S1(=O)CCC(NCCn2ccc(-c3ccc4ncnc(Nc5ccc(OCc6cccc(F)c6)c(Cl)c5)c4c3)c2)CC1	1420 nM	492 nM
CCN(CC)CCNCc1cccn1-c1ccc2ncnc(Nc3ccc(OCc4cccc(F)c4)c(Cl)c3)c2c1	770 nM	22.5 nM
Fc1cccc(COc2ccc(Nc3ncnc4ccc(-c5cc[nH]c5)cc34)cc2Cl)c1	50 nM	4 nM
OC(CNC1CC1)Cn1ccc(-c2ccc3ncnc(Nc4ccc5c(cnn5Cc5cccc(F)c5)c4)c3c2)c1 (stereo not drawn)	356 nM	12 nM
OC(Cn1ccc(-c2ccc3ncnc(Nc4ccc5c(cnn5Cc5cccc(F)c5)c4)c3c2)c1)Cn1ccnn1 (stereo not drawn)	400 nM	58 nM
CN1CCN(CCNC(=O)c2cn(-c3ccc4ncnc(Nc5ccc(OCc6cccc(F)c6)c(Cl)c5)c4c3)cc2CCO)CC1	10 nM	7.5 nM
O=C(Cn1ccc(-c2ccc3ncnc(Nc4ccc(OCc5cccc(F)c5)c(Cl)c4)c3c2)c1)N1CCN(CCO)CC1	51 nM	51 nM
O[C@@H](CN1CCOCC1)Cn1ccc(-c2ccc3ncnc(Nc4ccc(OCc5cccc(F)c5)c(Cl)c4)c3c2)c1	320 nM	31 nM
CCN(CC)CCN1CCOC(Cn2ccc(-c3ccc4ncnc(Nc5ccc6c(cnn6Cc6cccc(F)c6)c5)c4c3)c2)C1 (stereo not drawn)	501 nM	248 nM
Fc1cccc(COc2ccc(Nc3ncnc4ccc(-c5cc(CNCCN6CCOCC6)c[nH]5)cc34)cc2Cl)c1	240 nM	8 nM
CN(C)[C@@H]1CCN(C(=O)Cn2ccc(-c3ccc4ncnc(Nc5ccc(OCc6cccc(F)c6)c(Cl)c5)c4c3)c2)C1	2590 nM	133 nM
CCN(CC)CCNC(=O)c1cn(-c2ccc3ncnc(Nc4ccc(OCc5cccc(F)c5)c(Cl)c4)c3c2)cc1CCO	680 nM	3.6 nM
OC(CN1CCN(C2CC2)CC1)Cn1ccc(-c2ccc3ncnc(Nc4ccc(OCc5cccc(F)c5)c(Cl)c4)c3c2)c1 (stereo not drawn)	521 nM	117 nM
CS(=O)(=O)CCN1CCOC(Cn2ccc(-c3ccc4ncnc(Nc5ccc6c(cnn6Cc6cccc(F)c6)c5)c4c3)c2)C1 (stereo not drawn)	572 nM	236 nM
CS(=O)(=O)CCNCc1cn(-c2ccc3ncnc(Nc4ccc(OCc5cccc(F)c5)c(Cl)c4)c3c2)cc1C(F)(F)F	830 nM	16 nM
Fc1ccc(Nc2ncnc3ccc(-n4cccc4)cc23)cc1Cl	70 nM	61 nM
Fc1cccc(COc2ccc(Nc3ncnc4ccc(-c5ccc[nH]5)cc34)cc2Cl)c1	1080 nM	4 nM
CCN(CC)CC(O)Cn1ccc(-c2ccc3ncnc(Nc4ccc(OCc5cccc(F)c5)c(Cl)c4)c3c2)c1 (stereo not drawn)	350 nM	23 nM
O=C(c1cn(-c2ccc3ncnc(Nc4ccc(OCc5cccc(F)c5)c(Cl)c4)c3c2)cc1CCO)N1CCCC1	90 nM	15 nM
O=C1OCCc2cn(-c3ccc4ncnc(Nc5ccc(OCc6cccc(F)c6)c(Cl)c5)c4c3)cc21	570 nM	5 nM
